Source: patent publication US4476120A, “Thiolic derivatives of erythromycin having therapeutic activity, and pharmaceutical compositions containing them” (Sigma Tau Indistrie Farmaceutiche Riunites, p.A, priority 1982, dated 1984)
Structures can show the parent of a compound that is named as a salt.

Assays:
Staph. aureus SS 07 = test: Experimental infection induced by Staph. aureus SS 07; format: in vivo, Swiss white mice; settings: Staphylococcus aureus, SS07, in Mus musculus, sc, 168 h, read-out: ED50 (reliability limits)
Method: (§1) Swiss white mice of 20 g body weight were used, infected by parenteral administration of lethal amounts of pathogenic […] of Staph. aureus SS 07 and D. pneumoniae SS 23.
(§2) The antibiotics were administered at the time of injecting the infecting germ and 6 and 24 hours later. On the basis of the survival after 7 days, the ED50 values were determined, as reported in the following table II and III, wherein the reliability limits are indicated in brackets.

D. pneumoniae SS 23 = test: Experimental infection induced by D. pneumoniae SS 23; format: in vivo, Swiss white mice; settings: Streptococcus pneumoniae, SS23, in Mus musculus, sc, 168 h, read-out: ED50 (reliability limits)
Method: as §1, §2

[1] = Histological examination of bronchi after SO2 inhalation; format: in vivo, Sprague Dawley male rats; settings: i.m., 250 mg/kg
[2] = Mucolytic activity: obstruction of the bronchial tract after SO2 inhalation; format: in vivo, Sprague Dawley male rats; settings: i.m., 250 mg/kg; SO2, 15 days
Acute toxicity = format: in vivo; settings: mouse, in vivo, iv; mortality 10 days after treatment; mice; read-out: LD50 (reliability limits)
Method: The acute toxicity was assessed in Swiss white mice by oral and intravenous route. The LD50 values have been calculated by the methods of Probits, starting from the mortality recorded 10 days after the treatment.

SMILES | ED50 (Staph. aureus SS 07) [mg/kg] | ED50 (D. pneumoniae SS 23) [mg/kg] | bronchial epithelium reaction [1] | histological appearance of obstructed bronchial tract ([1]; obstructed) | Partial obstruction (% incidence) [2] [%] | Total obstruction, compact plug (% incidence) [2] [%] | Total obstruction, nodular mass (% incidence) [2] [%] | Total obstruction, pimply mass (% incidence) [2] [%] | LD50 at 240 h (Acute toxicity) [mg/kg]
CCOC(=O)CCC(=O)O[C@H]1[C@H](O[C@@H]2[C@@H](C)[C@H](O[C@H]3C[C@@](C)(OC)[C@@H](O)[C@H](C)O3)[C@@H](C)C(=O)O[C@H](CC)[C@@](C)(O)[C@H](O)[C@@H](C)C(=O)[C@H](C)C[C@@]2(C)O)O[C@H](C)C[C@@H]1N(C)C [erythromycin ethyl succinate, reference compound] | 1.03 | 54.2 | the bronchial epithelium reacts through a proliferation of cells, mainly cup-shaped cells | the bronchial obstruction is formed by abundant mucus admixed with fibrin | 20 | 53.33 | 26.66 | 13.33 | 
CC[C@H]1OC(=O)[C@H](C)[C@@H](O[C@H]2C[C@@](C)(OC)[C@@H](O)[C@H](C)O2)[C@H](C)[C@@H](O[C@@H]2O[C@H](C)C[C@H](N(C)C)[C@H]2O)[C@](C)(O)C[C@@H](C)C(=O)[C@H](C)[C@@H](O)[C@]1(C)O [erythromycin hydrochloride, reference compound] |  |  |  |  |  |  |  |  | 377
